Experimental data as given in paper PMC2698131 (Journal of biomolecular screening, 2009).
Like-named read-outs stand apart in the source and are kept apart here.

Tests used:
[1] = target: T1, LARG-stimulated RhoA nucleotide binding (Homo sapiens, UniProt Q9NZN5); type: biochemical; details: 20 minutes; for Hill Slope [TR-GTPγS]: BODIPY-TR-GTPγS fluorescence polarization dose-response; for IC50: BODIPY-TR-GTPγS 500 nM, LARG 100 nM, RhoA (C189S) 2 μM
T1 sequence (Q9NZN5 765-1138): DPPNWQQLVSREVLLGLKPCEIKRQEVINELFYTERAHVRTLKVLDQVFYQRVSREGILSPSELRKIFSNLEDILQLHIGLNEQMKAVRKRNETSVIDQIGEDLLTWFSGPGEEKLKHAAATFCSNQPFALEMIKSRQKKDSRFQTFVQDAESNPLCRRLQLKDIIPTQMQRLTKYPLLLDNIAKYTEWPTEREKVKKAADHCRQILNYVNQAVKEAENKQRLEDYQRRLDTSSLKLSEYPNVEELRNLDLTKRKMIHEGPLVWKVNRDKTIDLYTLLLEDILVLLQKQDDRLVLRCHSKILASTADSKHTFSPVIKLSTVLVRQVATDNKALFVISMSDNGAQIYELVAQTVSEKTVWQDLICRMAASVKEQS

[2] = target: T2, LARG-stimulated RhoA [35S] GTPγS binding (Homo sapiens, UniProt Q9NZN5); test: LARG-stimulated RhoA [35S] GTPγS guanine nucleotide binding assay; type: biochemical; details: LARG 2 nM, RhoA (C189S) 500 nM, 25 minute time point
T2 sequence (Q9NZN5 765-1138): T1 sequence (Q9NZN5 765-1138)

Compound	Hill Slope [TR-GTPγS] [1]	IC50 ([1]; IC50 (μM) [TR-GTPγS]) [µM]	Hill Slope [GTPγS35] [2]	IC50 ([2]; read-out: IC50 (μM) [GTPγS35]) [µM]	IC50 ([1]; read-out: IC50 (μM) [TR-GTPγS]) [µM]	IC50 ([2]; IC50 (μM) [GTPγS35]) [µM]
Nc1ccc(O)c(-c2nc3cc(N)ccc3s2)c1 [CCG-5849, 4-amino-2-(5-amino-1,3-benzothiazol-2-yl)phenol]	-1.6	10.7	–	–	–	–
O=c1oc2cc(O)ccc2cc1-c1csc(-c2ccc(-c3ccccc3)cc2)n1 [CCG-7167]	-1.8	–	-2.2	4.2	65.1	–
N=C1S/C(=C\c2ccc(-c3ccccc3[N+](=O)[O-])o2)C(=O)N1c1ccc2c(c1)OCO2 [CCG-13528, (5Z)-3-(2H-1,3-benzodioxol-5-yl)-2-imino-5-{[5-(2-nitrophenyl)furan-2-yl]methylidene}-1,3-thiazolidin-4-one]	-3.4	39.8	-1.8	–	–	4.6
Cc1cccc(NCC(=O)N/N=C\c2c(Br)cc(Br)c(O)c2Br)c1 [CCG-14113, (N′Z)-2-[(3-methylphenyl)amino]-N′-[(2,4,6-tribromo-3-hydroxyphenyl)methylidene]acetohydrazide]	-1.0	32.2	-7.1	–	–	32.8
O=C1NC(=S)NC(=O)C1=Cc1ccc(-c2ccc(S(=O)(=O)Nc3nccs3)cc2)o1 [CCG-14631, 4-{5-[(4,6-dioxo-2-sulfanylidene-1,3-diazinan-5-ylidene)methyl]furan-2-yl}-N-(1,3-thiazol-2-yl)benzene-1-sulfonamide]	-0.7	3.1	-1.1	–	–	7
